# “And” between values parts separate entries of the source, which are not always exact repeats. Equal entries are not always repeated.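 Where inhibition never reached the appropriate level, the endpoint shown equals the highest concentration tested. Otherwise, values were interpolated linearly from a five-concentration, 48-hour dose response in 96-well plates. The concentration for 50% growth inhibition is given as GI50. TGI is the concentration that stops growth completely.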
# Columns and labels:
# Test in all cases: growth of human tumour cells (NCI), 48 h
# [1] = system: OVCAR-5 ovarian
# [2] = system: MOLT-4 leukemia
# [3] = system: LOX IMVI melanoma
# [4] = system: COLO 205 colon
# [5] = system: NCI/ADR-RES ovarian
# [6] = system: A498 renal
# [7] = system: UACC-257 melanoma
# [8] = system: HOP-62 NSCLC
# [9] = system: A549 NSCLC
# [10] = system: SK-MEL-2 melanoma
SMILES,GI50 [1],TGI [1],GI50 [2],TGI [2],GI50 [3],TGI [3],GI50 [4],TGI [4],GI50 [5],TGI [5],GI50 [6],TGI [6],GI50 [7],TGI [7],GI50 [8],TGI [8],GI50 [9],TGI [9],GI50 [10],TGI [10]
COc1cc(-c2nc(SCC(=O)Nc3ccc(C(C)=O)cc3)[nH]c(=O)c2C#N)cc(OC)c1OC,85.1 µM,> 100 µM,36.4 µM,> 100 µM,41.7 µM,> 100 µM,> 100 µM,> 100 µM,> 100 µM,> 100 µM,21.3 µM,85 µM,97.4 µM,> 100 µM,79.3 µM,> 100 µM,> 100 µM,> 100 µM,–,–
Cc1ccc(S(=O)(=O)NC(CCC(=O)Nc2ccccc2)C(=O)Nc2ccccc2)cc1 (centres undefined),–,–,0.375 µM,> 100 µM,–,–,–,–,0.475 µM,2.19 µM,0.142 µM,0.897 µM,0.464 µM,2.36 µM,–,–,0.319 µM,1.76 µM,0.427 µM,1.47 µM
CN(/N=C/c1ccnc2ccccc12)c1ccc([N+](=O)[O-])cc1[N+](=O)[O-],–,> 100 µM,–,> 100 µM,–,> 100 µM,–,> 100 µM,–,–,–,> 100 µM,–,> 100 µM,–,89.1 µM,–,> 100 µM,–,79.1 µM
CC12CCc3ccccc3C1=Nc1ccccc12 (centres undefined),–,> 100 µM,–,58.5 µM,–,> 100 µM,–,> 100 µM,–,64.6 µM,–,–,–,> 100 µM,–,> 100 µM,–,> 100 µM,–,> 100 µM
CCc1ccc(/C(C)=N/NC(N)=S)cc1,–,72.3 µM,–,> 100 µM,–,–,–,> 100 µM,–,–,–,–,–,–,–,> 100 µM,–,> 100 µM,–,> 100 µM
O=C(CCCNC(=O)OCc1ccccc1)OCc1ccc2c(c1)C(=O)c1ccccc1C2=O,–,> 100 µM,–,> 100 µM,–,> 100 µM,–,> 23 µM,–,–,–,> 100 µM,–,> 100 µM,–,> 93.4 µM,–,> 100 µM,–,> 100 µM
COc1ccc(OC)c(-c2cc(-c3ccccc3)nn2-c2ccc(S(N)(=O)=O)cc2)c1,15 µM,28.8 µM,6.44 µM,> 100 µM,–,–,–,–,16.2 µM,31.8 µM,–,–,15.2 µM,31.6 µM,–,–,13.1 µM,42.6 µM,27.5 µM,> 100 µM
CC(F)(F)c1cc(F)ccc1-c1sc2cc(O)ccc2c1Oc1ccc(/C=C/C(=O)O)cc1,17.4 µM,37.7 µM,10.3 µM,50 µM,6.96 µM,21.9 µM,–,–,6.66 µM,40.1 µM,–,–,14.2 µM,57.5 µM,9.03 µM,26.8 µM,10.3 µM,29.9 µM,4.43 µM,20.8 µM
CC(C)c1cc(CNc2nc(Nc3cc(C4CC4)[nH]n3)cc(N3CCN(C)CC3)n2)on1,–,> 10 µM and 3.91 µM,2.71 µM and 0.477 µM,> 10 µM and 8.44 µM,–,–,–,–,> 10 µM and 6.84 µM,> 10 µM and 25.4 µM,–,–,–,> 10 µM and 5.53 µM,–,–,–,> 10 µM and 11.8 µM,1.69 µM and 0.646 µM,> 10 µM and 2.29 µM
O=C1NC(=O)C2(CCC(O)C2)c2cc[n+]([O-])cc21 (centres undefined),–,> 100 µM,–,> 100 µM,–,> 100 µM,–,> 100 µM,–,–,–,> 100 µM,–,> 100 µM,–,> 100 µM,–,> 100 µM,–,> 100 µM

# Reference: PubChem BioAssay (NCI)
